Laboratory results published in US20080145343A1, “Conjugates of biologically active compounds, methods for their preparation and use, formulation and pharmaceutical applications thereof” (priority 2002, published 2008).
Where two headings read alike, the source gives them in different places.

Legend:
[1] = system: E. coli (DH5α); assay: Testing of antibiotic activity (TC50, dilution assay, turbidity); format: cell-based; details: concentration that inhibits 50% of the growth
Experimental: The TC50 or MIC procedure for antibiotic sensitivity testing involves an antibiotic dilution assay, which can be performed in microtitre plates. A series of twofold dilutions of each antibiotic are made in the wells, and then all wells are inoculated with a standard amount of the same test organism. After incubation, growth in the presence of the various antibiotics is observed by measuring turbidity.
Bacteria: B. pumilus and E. coli (DH5α) Bacterial cultures are initiated from the plates for 2 to 3 weeks. After this time period bacteria are streaked out on new plates from the backups stored at −80° C. Due to the lack of resistance of the bacteria, new cultures are not to be initiated from an old plate or any liquid cultures derived from old plates. Growth medium (GM) (per liter): 10 g Bacto-tryptone, 5 g Bacto-yeast extract, 6 g HEPES (25 mM), 5.4 g NaCl, pH 7.3 Compound stocks 10 or 100 mM in DMSO stored at −20° C.
• 1. Grow B. pumilus from an LB agar plate in a flask (max. 10% volume) up to about 50 ml in growth medium (GM) • 2. Dilute overnight suspension 1:10 in GM • 3. Determine OD600 of diluted bacterial suspension • 4. Dilute bacterial suspension in GM to an OD600 of 0.03-0.04. (6 ml/plate) • 5. Add 200 μl GM to the outer wells (Row A, Row H, Column 1, Column 12) • 6. Add 100 μl GM to each well starting from C2, row 3. • 7. Controls: Wells B2-B4 growth control. Wells B6-B8 blank. Row C growth inhibition control. • 7.1. To wells B2-B4 add: 96 μl GM, 4 μl DMSO, and 100 μl bacterial suspension adjusted to an OD600 of 0.03-0.04. • 7.2. To wells B6-B8 add: 196 μl GM and 4 μl DMSO • 7.3. Dilute a 10 mM Compound 43 (positive control) stock to 800 μM (120 μl/plate) in GM. Add 100 μl of 800 μM Compound 43 solution to well C2. • 8. Samples • 8.1. Dilute the 10 or 100 mM stock solutions to 800 μM (250 μl/plate) in GM. • 8.2. Add 100 μl of 800 μM sample in duplicates to wells D2/E2 resp. F2/G2. • 8.3. 2-fold serial dilution of all samples and Azithromycin • 8.3.1. Rows C-G, Columns 2: Mix and transfer 100 μl from each row to Column 3, and continue until column 11. The remaining 100 μl out of column 11 are disposed. • 9. Add 100 μl of bacterial suspension (OD600 0.03-0.04) to each well from C2-G11. • 10. Incubate plates on shaker, 750 rpm, 37° C., until the growth controls have reached an OD600 of 0.6-0.8 (approximately 6-8 h).
11. Determine OD600 on plate reader.

[2] = system: HeLa or JURKAT; assay: Cytotoxicity assay (Alamar Blue) with guanosine rescue; format: cell-based
Experimental: HeLa cells (DSMZ, ACC 57) and Jurkat cells (DSMZ, ACC 282) in exponential growth phase are exposed for 3 days to test compounds. The number of surviving cells is then determined by the Alamar Blue assay (Serotec Inc.). This assay incorporates a fluorometric growth indicator based on detection of metabolic activity. Specifically, the system incorporates an oxidation-reduction indicator that fluoresces in response to chemical reduction of the growth medium resulting from cell growth. As cells grow in culture, innate metabolic activity results in a chemical reduction of the immediate surrounding environment. Continued growth maintains a reduced environment while inhibition of growth maintains an oxidized environment. […] Fluorescence is monitored at 560 nm (Exc.) and 590 nm Em.
HeLa cells (1×10^3) or JURKAT cells (1×10^3) are plated in 100 μl MEM medium (with Earle's salt; Biochrom KG) containing 10% FBS, 2 mM L-glutamine, and non-essential animo acids in 96-well plates and incubated at 37° C. and 5% CO2 atmosphere. […] The fluorescence is then measured as described above and the LD50 is determined based on a sigmoidal dose response regression. […] Any toxicity still detected can then be ascribed either to other biological effects of the of T-L-C conjugate of mycophenolic acid, or is due to the very high intracellular concentration of mycophenolic acid, following concentrative uptake into the cell.

[3] = system: white blood cells; assay: Immune cell selective uptake from blood cell mix (immune selectivity ratio method); format: cell-based, mammalian
Experimental: Freshly drawn heparinised blood or buffy coat preparations are used for the determination of immune cell partition ratios. Buffy coat preparations are preferred. These may be obtained from donor blood by simple centrifugation of whole blood (4795 g for 10 minutes). Following centrifugation, plasma is collected from the surface, after which immune cells are expressed from the donor bags along with the erythrocytes lying immediately below the leukocyte layer. This ensures high yields and a sufficient population of erythrocytes for partition. 5 ml of the resulting cell suspension are dispensed into T25 culture flasks. Substrates are added to a final concentration between 1 and 10 μM and the suspensions incubated at 37° C., in a 5% CO2 atmosphere. For analysis of uptake kinetics, samples are withdrawn at 0, 2, 5, 10, 30, 60, 90, 180, or 240 min after substrate addition. For screening purposes, samples are taken at 0 and 120 minutes. […]
Uptake of fluorescent compounds is monitored using fluorescence microscopy. Excitation and emission wavelengths depend of the fluorescence label in use. […]
Cell lysates are analysed using a HP 1100 HPLC System (Agilent Technologies, Waldbronn, Germany) with a Kromasil 3.5μ C18, 50×2.0 mm column and guard cartridge system (both, Phenomenex, Aschaffenburg, Germany) run at 30° C. […]
Masses are monitored according to the known or expected M/Z ratios. […]

[4] = system: lymphocytes; assay: Proliferation assay (BrdU ELISA, phytohemagglutanin-stimulated); format: cell-based, mammalian; details: for Ratio (2 h:72 h): IC50 at 2 h : IC50 at 72 h, lower = better uptake and release; for IC50: Lymphocyte
Excerpt: Assay to determine the in vitro rate of, for example, lymphocyte proliferation. Lymphocytes are purified out of ant coagulated (CPDA, citrate or heparin) mammalian blood using the Lymphoprep™ system (supplier). Purified cells are counted using a hemocytometer following Trypan Blue staining, and a cell concentration of 1×10^6 cells/ml established in RPMi 1640 medium with 10% FCS and antibiotics as required (all from Biochrome). Following the addition of a cell proliferation stimulant, for example phytohemagglutanin (Sigma) at, for example an end concentration of 5 μg/ml, the cells are incubated with different concentrations of the to be investigated compound in 100 μl end volume in a 96-well microtiter plate in an incubator (37° C., 5% CO2, 95% humidity) for 72 h. Cell proliferation is quantified following BrdU incorporation for 16 h by ELISA and subsequent calorimetric development (Cell Proliferation ELISA BrdU (colorimetric) kit from Roche Diagnostics). The IC50 (μM) values are then calculated, and used to compare compound efficacy.
To determine the influence of the T-L-C modification on in vitro cellular drug uptake and pharmacology, the above assay is additionally modified and an additional “wash” step included. In addition to running the assay for 72 h with the compounds to be tested, the assay is also run for just 2 h, then compound is washed away in three serial washing steps using 200 μl of medium at each step, and the cells subsequently incubated for a further 70 h. […] The lower the number, the better the uptake and drug release from the T-L-C in the cells (see results in Table 4 for examples), and improvement over mycophenolic acid.

[5] = read-out: IC50 (μM) at 2 h, 2 h with compound, washed away, further 70 h incubation
[6] = 72 h incubation with compound, read-out: IC50 (μM) at 72 h

`CC[C@H]1OC(=O)[C@H](C)C(=O)[C@H](C)[C@@H](O[C@@H]2O[C@H](C)CC(N(C)C)[C@H]2O)[C@](C)(O)C[C@@H](C)CN(C)[C@H](C)[C@@H](O)[C@]1(C)O` (some centres unmarked) [Compound 40] was tested, and the “TC50 in E. coli” value [1] was >50 µM.
With `CC[C@H]1OC(=O)[C@H](C)[C@@H](O[C@H]2C[C@@](C)(OC)[C@@H](O)[C@H](C)O2)[C@H](C)[C@@H](O[C@@H]2O[C@H](C)CC(N(C)C(=O)CN(C)CCO)[C@H]2O)[C@](C)(O)C[C@@H](C)CN(C)[C@H](C)[C@@H](O)[C@]1(C)O` (some centres unmarked) [Compound 45] the “TC50 in E. coli” value [1] was >50 µM.
`COc1c(C)c2c(c(O)c1C/C=C(\C)CCC(=O)O)C(=O)OC2` [Mycophenolic acid] was tested, and the “effect in the presence of guanosine” value ([2]; 50 μM guanosine) was “completely removed” and the IC50 ([2]; normal culture conditions) was < 2000 nM.
In the case of `CC[C@H]1OC(=O)[C@H](C)[C@@H](O[C@H]2C[C@@](C)(OC)[C@@H](O)[C@H](C)O2)[C@H](C)[C@@H](O[C@@H]2O[C@H](C)C[C@H](N(C)C)[C@H]2O)[C@](C)(O)C[C@@H](C)CN(C)[C@H](C)[C@@H](O)[C@]1(C)O` [Compound 43, 9a-aza-9a-methyl-9-deoxo-9a-homoerythromycin A, reference compound], the “TC50 in E. coli” value [1] is reported as 2.3 µM.
In the case of `CC[C@H]1OC(=O)[C@H](C)[C@@H](OC2C[C@@](C)(OC)[C@@H](O)[C@H](C)O2)[C@H](C)[C@@H](OC2O[C@H](C)C[C@H](N(C)C)[C@H]2O)[C@](C)(O)C[C@@H](C)/C(=N/OCc2cc(=O)oc3cc(OC)c(OC)cc23)[C@H](C)[C@@H](O)[C@]1(C)O` (some centres unmarked) [Compound 3], the intracellular distribution ([3]; polymorphonuclear cells, fluorescent image (FIG. 3)) is reported as “even distribution with some concentration near the nucleus”.
For `COc1cc(C)c(/C(=C\C(C)=O)CC(N)C(=O)O)cc1OC` (centres unmarked) [Compound 4], the uptake speed ([3]; fluorescent compounds, images during uptake) was “uptake is rapid”.
With `CC[C@H]1OC(=O)[C@H](C)C(=O)[C@H](C)[C@@H](O[C@@H]2O[C@H](C)C[C@H](N(C)C)[C@H]2OC(=O)Cc2ccccc2Nc2c(Cl)cccc2Cl)[C@](C)(O)C[C@@H](C)CN(C)[C@H](C)[C@@H](O)[C@]1(C)O` [Compound 53] the “TC50 in E. coli” value [1] was >50 µM.
For `CC[C@H]1OC(=O)[C@H](C)[C@@H](O[C@H]2C[C@@](C)(OC)[C@@H](O)[C@H](C)O2)[C@H](C)[C@@H](O[C@@H]2O[C@H](C)CC(N(C)C)[C@H]2OC(=O)CC/C(C)=C/Cc2c(O)c3c(c(C)c2OC)COC3=O)[C@](C)(O)C[C@@H](C)CN(C)[C@H](C)[C@@H](O)[C@]1(C)O` (some centres unmarked) [Compound 67], the “Ratio (2 h:72 h)” value [4] was 1.3, the IC50 [4, 5] was 1.74 µM and the IC50 [4, 6] was 1.36 µM.
With `CCOC(=O)CC/C(C)=C/Cc1c(CC(=O)CCC(=O)O[C@@H]2C(N(C)C)C[C@@H](C)O[C@H]2O[C@@H]2[C@@H](C)[C@H](O[C@H]3C[C@@](C)(OC)[C@@H](O)[C@H](C)O3)[C@@H](C)C(=O)O[C@H](CC)[C@@](C)(O)[C@H](O)[C@@H](C)N(C)C[C@H](C)C[C@@]2(C)O)c2c(c(C)c1OC)COC2=O` (some centres unmarked) [Compound 69] the “Ratio (2 h:72 h)” value [4] was 1.9, the IC50 [4, 5] was 2.66 µM and the IC50 [4, 6] was 1.4 µM.
`CC[C@H]1OC(=O)[C@H](C)[C@@H](C)[C@H](C)[C@@H](O[C@@H]2O[C@H](C)C[C@@H](N(C)CCOC(=O)CC/C(C)=C/Cc3c(O)c4c(c(C)c3OC)COC4=O)[C@@H]2N(C)C)[C@](C)(O)C[C@@H](C)CN(C)[C@H](C)[C@@H](O)[C@]1(C)O` [Compound 74] was tested, and the “Ratio (2 h:72 h)” value [4] was 1.45, the IC50 [4, 5] was 3.2 µM and the IC50 [4, 6] was 2.2 µM.
